Experimental data taken from patent US9095161B2, “Preparation and use of methionylmethionine as feed additive for fish and crustaceans” (EVONIK DEGUSSA GmbH, priority 2008, dated 2015).

How the values were obtained:
[1] = Leaching characteristics from feed pellets under water; type: physicochemical; conditions: for dissolved out of feed pellets under water: 20.0 g pellets in 200 g water, 20° C.; for leaching compared with DL-methionine, MHA and calcium-MHA: compound feed pellets under water, identical conditions
Text: The feed matrix used was a methionine-deficient feed mixture of conventional ingredients such as, for example, soybean meal, soybean oil, cornstarch, wheat meal, fish meal, cellulose, crystalline essential amino acids and minerals and vitamins as premixes. This mixture was then supplemented batchwise in 20 kg batches in each case with the methionine derivatives stated in table 5, with a 0.25% supplementation rate (based on sulfur equivalents), and was homogenized and then pelleted with steam treatment. As comparison with methionylmethionine (I), a pelleting experiment was carried out in each case with DL-methionine, MHA (methionine hydroxy analog) and calcium MHA. In addition, a control experiment was carried out by pelleting without addition of a methionine derivative (see table 5). The leaching characteristics of the diastereomers of methionylmethionine (I) from the feed pellets was then investigated under water. In this case, the dissolving out of methionylmethionine under water as a function of time, temperature, water composition (salt or fresh water) was determined. […] All the Erlenmeyer flask was subsequently agitated continuously with a laboratory shaker at a constant temperature of 20° C. Then, at defined time intervals, a sample of water was removed in each case and the content of the individual pairs of methionylmethionine diastereomers in the water was determined by HPLC (see table 7). For comparison, in each case the feed pellets supplemented with DL-methionine, MHA or calcium MHA were investigated under the same conditions and thus their leaching characteristics under water determined under the respective conditions (see FIG. 5 and table 7).

[2] = system: enzyme cocktail of digestive and liver enzymes from carp
Description: The method for isolating the digestive enzymes was based on that of EID and MATTY (Aquaculture 1989, 79, 111-119). […] To isolate liver enzymes, the livers were isolated, homogenized and treated in analogy to the processing of the intestinal enzymes in example 22. The procedure for enzyme isolation from the pancreas was also analogous thereto.
D-Methionine was taken up in buffer solution, and the enzyme solution was added. A blank without enzyme solution was made up in each case as comparison and for estimating the purely chemical transformation rate. After 24 hours, a sample was taken and the composition was detected and quantified with the aid of calibrated HPLC.

chickens = conditions: cited from earlier work
[3] = Stability during pelleting and steam treatment of the feed mixture; type: physicochemical; conditions: mixtures with natural protein and carbohydrate sources
Text: The feed matrix used was a methionine-deficient feed mixture of conventional ingredients such as, for example, soybean meal, soybean oil, cornstarch, wheat meal, fish meal, cellulose, crystalline essential amino acids and minerals and vitamins as premixes. This mixture was then supplemented batchwise in 20 kg batches in each case with the methionine derivatives stated in table 5, with a 0.25% supplementation rate (based on sulfur equivalents), and was homogenized and then pelleted with steam treatment. As comparison with methionylmethionine (I), a pelleting experiment was carried out in each case with DL-methionine, MHA (methionine hydroxy analog) and calcium MHA. In addition, a control experiment was carried out by pelleting without addition of a methionine derivative (see table 5). In this case, the amino acid determination was based on EU method 98/64/EC. After extraction of the free amino acids and methionylmethionine (I), these were subsequently determined with the aid of an amino acid analyzer by post-column derivatization with ninhydrin (see table 6).

Litopenaeus vannamei = conditions: feeding experiments; cited from earlier work

| biotransformation of D-methionine to L-methionine [2] | Molecule | dissolved out of feed pellets under water ([1]; Time 0) [%] | dissolved out of feed pellets under water ([1]; Time 5) [%] | dissolved out of feed pellets under water ([1]; Time 10) [%] | dissolved out of feed pellets under water ([1]; Time 15) [%] | dissolved out of feed pellets under water ([1]; Time 30) [%] | dissolved out of feed pellets under water ([1]; Time 60) [%] | dissolved out of feed pellets under water ([1]; Time 120) [%] | dissolved out of feed pellets under water ([1]; Time 210) [%] | biological value (chickens) | stability during pelleting, extrusion and steam treatment [3] | stability during pelleting, extrusion and steam treatment ([3]; listed as DL-methionyl-DL-methionine (I)) | stability during pelleting, extrusion and steam treatment ([3]; listed as methionylmethionine (I)) | leaching compared with DL-methionine, MHA and calcium-MHA [1] | activity as feed additive compared with L-methionine (Litopenaeus vannamei) | maximum dissolved out of the feed pellets ([1]; after a residence time of 200 min) [%] |
| --- | --- | --- | --- | --- | --- | --- | --- | --- | --- | --- | --- | --- | --- | --- | --- | --- |
|  | CSCCC(O)C(=O)O (racemic) [MHA, rac-2-hydroxy-4-(methylthio)butanoic acid, reference compound] | 6.0 | 12.8 | 20.8 | 28.8 | 50.5 | 75.4 | 94.1 | 99.9 |  |  |  |  |  |  |  |
| may be transformed into L-methionine | CSCC[C@@H](N)C(=O)O [D-methionine] |  |  |  |  |  |  |  |  |  |  |  |  |  |  |  |
|  | poly-L-methionine |  |  |  |  |  |  |  |  | lack of biological value |  |  |  |  |  |  |
|  | CSCCC(N)C(=O)NC(CCSC)C(=O)O (mixture of isomers) [LL/DD/LD/DL-I, DL-methionyl-DL-methionine] | 1.5 | 2.0 | 3.2 | 3.6 | 5.4 | 9.5 | 12.3 | 17.0 |  | stable | absolutely stable | remained stable | distinctly less leaching |  |  |
|  | CSCCC(N)C(=O)O (racemic) [Methionine, DL-methionine] | 4.0 | 12.0 | 16.0 | 24.0 | 39.9 | 59.9 | 79.8 | 87.8 |  |  |  |  |  | same activity as L-methionine |  |
|  | CSCCC(N)C(=O)NC(CCSC)C(=O)O (stereo not drawn) [DL/LD-I, DL/LD-methionylmethionine] | 0.6 | 0.7 | 0.9 | 0.6 | 0.6 | 1.7 | 1.7 | 3.8 |  |  |  |  | distinctly less leaching |  | ≤ 5 |
|  | CSCCC(N)C(=O)NC(CCSC)C(=O)O (stereo not shown) [LL/DD-I, DD/LL-methionylmethionine] | 2.7 | 3.7 | 6.5 | 7.7 | 12.1 | 20.6 | 27.4 | 35.9 |  |  |  |  | distinctly less leaching |  |  |
|  | CSCCC(O)C(=O)[O-].CSCCC(O)C(=O)[O-].[Ca+2] (stereo not shown) [MHA-Ca, reference compound] | 8.6 | 16.5 | 28.2 | 39.4 | 61.7 | 82.4 | 94.1 | 97.0 |  |  |  |  |  |  |  |
